Entries after “also recorded” stand apart in the source; their conditions may differ.
Legend:
[1] = system: cisplatin-induced nephrotoxicity in Wistar-Kyoto (WKY) rats; experiment: Cisplatin-induced nephrotoxicity in rats; format: in vivo, rat
Description: Experiments were approved and carried out according to the guidelines of the Institutional Animal Care and Use Committee, Medical College of Wisconsin, Milwaukee, USA. Male Wistar-Kyoto (WKY) rats weighing 180-200 g (Charles River, Mass., USA). All animals were kept in a temperature-controlled environment with a 12-h light/dark cycle and were allowed free access to food and water at all times. An acclimatization period of 6 days was allowed for the rats before experimentation. The rats were assigned into four groups. […] Rats received drinking water ad libitum for seven days and on day 7 DMSO (Sigma Aldrich, St. Louis, Mo., USA) was administered (300-500 μl i.p.). […] These rats are pretreated with the EET analog […].) for seven days in drinking water and then on day 7 administered CP as a single injection (7 mg/kg i.p.) followed by another five days treatment with EET-A. […] One day before the rats were sacrificed, urine of each rat was collected over a 24-h period, and the volume was measured. Five days after CP or DMSO administration, rats were anesthetized for blood sample collection followed by euthanasia and tissue collection. Urine and plasma samples were kept frozen at -80° C. until analyzed. The kidneys were removed, washed with physiological saline and stored at -80° C. until used for RT-PCR analysis, thiobarbituric acid reactive substance (TBARS) measurement and caspase 3 activity assay. […] The levels of blood urea nitrogen (BUN) (BioAssay Systems, Hayward, Calif., USA) and serum creatinine (Cayman Chemical Company, Ann Arbor, Mich., USA) were measured spectrophotometrically using commercial kits. Urinary content of creatinine and protein were measured using commercial kits (Cayman Chemical Company, Ann Arbor, Mich., USA), and the activity of urinary N-acetyl-b-glucosaminidase (NAG) in the urine was measured by a kit from Diazyme (Diazyme Laboratories, Poway, Calif., USA). While urine content of kidney injury molecule-1 (KIM-1) was measured using ELISA (R&D Systems, Inc. Minneapolis, Minn., USA). Malondialdehyde (MDA) is a thiobarbituric acid reactive substance (TBARS) that is formed as an end-product of lipid peroxidation and serves as an important index of oxidative stress. […] Using a commercially available kit (Cayman Chemical Company, Ann Arbor, Mich., USA), MDA was measured spectrophotometrically after reaction with thiobarbituric acid. […] Louis, Mo., USA). Kidney homogenate was prepared with a lysis Buffer (50 mM HEPES, pH 7.4, with 5 mM CHAPS and 5 mM DTT). […] The caspase 3 activity is expressed as nmol of AMC/min/μL. Real-Time analysis was carried out to assess the expression of oxidative (gp91phox, NOX1, SOD1, SOD2, SOD3), inflammatory (TNF-α, IL-6, apoptotic (Bax, Bak, Bcl-2) and endoplasmic reticulum stress (GRP78, caspase 12) related genes in the kidney. Total RNA was isolated from kidney homogenate using TRIzol LS reagents (Invitrogen Life Technologies, Carlsbad, Calif., USA) according to the manufacturer's instructions. The isolated RNA was treated with RNase-free DNase (Invitrogen, Carlsbad, Calif., USA) to remove traces of genomic DNA contamination. The mRNA samples were quantified by spectrophotometry at 260 nm and 1 μg of total RNA was reverse-transcribed to cDNA using iScriptTM Select cDNA Synthesis Kit (Bio-Rad, Hercules, Calif., USA). The target gene expression was quantified by iScript One-Step RT-PCR Kit with SYBR green using MyiQTM Single Color Real-Time PCR Detection System (Bio-Rad Laboratories, Hercules, Calif., USA). Each amplified sample in all wells was analyzed for homogeneity using dissociation curve analysis using iQ5 Optical System Software, Version 2.1 (Bio-Rad Laboratories, Hercules, Calif., USA). […] In analyzing the relative expression of the target genes, the Ct values were normalized to a housekeeping gene (pgk1). Statistical analyses were carried out for at least 5-7 experimental samples in each experimental group. Primers used in this study were designed based on several earlier reports. […]

[2] = system: Hela, NCCIT and U87 cancer cell lines; experiment: Cell viability by alamar blue assay in cancer cell lines; format: cell-based, human; details: 72 h
Procedure: (§1) In this study, HEK293, U87MG, Hela cell-lines were obtained from the ATCC (Manassas, Va., USA) (HEK293, U87MG, Hela), and NCCIT was collected from Department of Pediatrics, UT Southwestern Medical Center at Dallas, Tex., USA. All cell lines were maintained in DMEM or RPIM with 10% fetal bovine serum and penicillin/streptomycin purchased from Life Technologies (Grand Island, N.Y., USA). Cisplatin was purchased from either Sigma (St. Louis, Mo., USA) or CalBiochem/EMD Biosciences (Billerica, Mass., USA). Cells were seeded in 96-well plates at 500 to 4,000 cells per well depends on cell type. […] Cell viability was measured by alamar blue assay using resazurin (Sigma Aldrich) according to the manufacturer's guidelines. Viability results were measured by fluorescence/absorbance in a 96-well plate reader from BMG Labtech (Cary, N.C., USA) and the IC50 was calculated by GraphPad Prism5 software (GraphPad Software Inc, La Jolla, Calif., USA).

NCCIT cells = experiment: Cell viability by alamar blue assay, cisplatin with concurrent EET-A; format: cell-based, human; details: concurrent application of EET-A and cisplatin; NCCIT cancer cell line
Procedure: as §1

## Disodium (S)-2-(13-(3-pentylureido)tridec-8(Z)-enamido)succinate [EET-A]
[1]; 10 mg/kg/d p.o., cisplatin 7 mg/kg i.p., day 5 after cisplatin, vehicle 241±51
  BUN: 108 ± 30 mg/dL
[1]; 10 mg/kg/d p.o., day 5 after cisplatin, vehicle 3.1±0.2
  plasma creatinine (PCr): 2.0 ± 0.2 mg/dL
[1]; 10 mg/kg/d p.o., vehicle 16±2
  kidney TBARS formation: 7 ± 1 µmol/g
[1]; cisplatin-administered rats
  reductions in renal mRNA expressions of inflammatory markers (TNF-α, IL-6, interleukin-1β): 40-60%
[1]; cisplatin-administered rats, vehicle 53±5
  proteinuria: 33 ± 8 mg/day
[1]; five days after cisplatin, vs. vehicle
  reductions in the elevated levels of serum creatinine and BUN: 30-50%
[1]; urinary, 10 mg/kg/d p.o., vehicle 3.0±0.6
  NAG: 0.5±0.1 U/d
[1]; urinary, 10 mg/kg/d p.o., vehicle 296±94
  KIM-1: 85 ± 29 ng/day
[1]; vs. cisplatin rats treated with vehicle
  reduction in urinary excretion of NAG and KIM-1: 30-50%
[1]; vs. vehicle
  reduction of cisplatin-induced proteinuria: ≥ 40%
[1]; vs. vehicle treatment
  reduction in elevated renal expressions of GRP78 and caspase 12 mRNAs: 2-4 fold
[1]; vs. vehicle-treated cisplatin rats
  decrease in kidney expression of NOX1 and gp91phox mRNAs: 2-3 folds
[2]
  effect on cell number / growth: no observable effects; also recorded: no effect
NCCIT cells
  influence on cisplatin's chemotherapeutic effect: did not influence

From US9422318B2, “Epoxyeicosatrienoic acid analogs and methods of making and using the same” (THE MEDICAL COLLEGE OF WISCONSIN, INC., priority 2011, dated 2016)
